Results reported in US20050209278A1, “Piperidinyl- and piperazinyl-sulfonylmethyl hydroxamic acids and their use as protease inhibitors” (priority 2002, published 2005).
Read-outs that look alike come from different tables or passages of the source.

Legend:
[1] = target: T1, MMP-13 (Homo sapiens, UniProt P45452); assay: In vitro MMP inhibition, IC50 determination (fluorogenic substrate I); assay type: biochemical; settings: read-out: MMP-13 (IC-50)
T1 construct: made in house; host or cells: baculovirus / insect cells

[2] = target: T2, MMP-1 (Homo sapiens, UniProt P03956); assay: In vitro MMP inhibition, Ki determination (fluorogenic substrate II); assay type: biochemical; settings: value outside parentheses; read-out: MMP-1 Ki
T2 construct: made in house; host or cells: MMP-1-transfected HT-1080 cells (spent media)
T2 sequence (P03956 100-469): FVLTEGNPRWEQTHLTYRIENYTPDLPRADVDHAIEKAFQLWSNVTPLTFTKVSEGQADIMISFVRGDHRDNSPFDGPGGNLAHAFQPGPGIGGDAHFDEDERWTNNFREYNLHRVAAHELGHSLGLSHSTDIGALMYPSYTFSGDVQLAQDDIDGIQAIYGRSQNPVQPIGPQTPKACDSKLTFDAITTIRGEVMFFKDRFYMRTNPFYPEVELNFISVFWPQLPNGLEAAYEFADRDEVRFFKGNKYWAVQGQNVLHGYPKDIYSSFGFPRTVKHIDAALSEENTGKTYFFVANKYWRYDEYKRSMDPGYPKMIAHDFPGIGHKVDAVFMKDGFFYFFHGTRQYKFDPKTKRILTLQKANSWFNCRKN

| SMILES | IC50 ([1]; value in parenthesis) [µM] | Ki [2] [µM] | other results |
| --- | --- | --- | --- |
| CCOCCCc1ccc(N2CCN(S(=O)(=O)C3(C(=O)NO)CCN(CCOC)CC3)CC2)cc1 [Example 179] | 0.00053 |  |  |
| COCCCc1ccc(N2CCN(S(=O)(=O)C3(C(=O)NO)CCN(CCOC)CC3)CC2)cc1 [Example 180] | 0.00121 |  |  |
| CCC(CC)Cc1ccc(N2CCN(S(=O)(=O)C3(C(=O)NO)CCN(CCOC)CC3)CC2)cc1 [Example 188] | 0.00401 |  |  |
| CCCCCCCOC1CCN(S(=O)(=O)C2(C(=O)NO)CCOCC2)CC1 [Example 406] |  | 9.01 |  |
| O=C(NO)C1(S(=O)(=O)N2CCN(c3nc(-c4ccccc4)cs3)CC2)CCOCC1 [Example 415] |  | > 10 |  |
| CCCCc1ccc(C2CCN(S(=O)(=O)C3(C(=O)NO)CCN(CCOC)CC3)CC2)nc1 [Example 397] |  | > 10 |  |
| CCCCCC/C=C\C1CCN(S(=O)(=O)C2(C(=O)NO)CCOCC2)CC1 [Example 401] |  | > 10 |  |
| O=C(NO)C1(S(=O)(=O)N2CCC(c3ccc(OCc4ccccc4)cn3)CC2)CCOCC1 [Example 398] |  | 1.95 |  |
| Cc1cccc(-c2csc(N3CCN(S(=O)(=O)C4(C(=O)NO)CCOCC4)CC3)n2)c1 [Example 413] |  | > 10 |  |
| O=C(NO)C1(S(=O)(=O)N2CCC(c3ccc(-c4ccccn4)cn3)CC2)CCOCC1 [Example 409] |  | > 10 |  |
| COCCN1CCC(C(=O)NO)(S(=O)(=O)N2CCN(c3ccc(CCC4CCCC4)cc3)CC2)CC1 [Example 182] | 0.00014 |  |  |
| O=C(NO)C1(S(=O)(=O)N2CCC(c3ccc(-c4cccc(F)c4)cn3)CC2)CCOCC1 [Example 417] |  | 1.83 |  |
| CCCCc1ccc(C2(O)CCN(S(=O)(=O)C3(C(=O)NO)CCOCC3)CC2)nc1 [Example 420] |  | > 10 |  |
| O=C(NO)C1(S(=O)(=O)N2CCC(c3ccc(N4CCCC4)cn3)CC2)CCOCC1 [Example 408] |  | > 10 |  |
| CCc1cnc(N2CCN(S(=O)(=O)C3(C(=O)NO)CCN(CCOC)CC3)CC2)nc1 [Example 187] | 0.0473 |  |  |
| COCCN1CCC(C(=O)NO)(S(=O)(=O)N2CCN(c3ccc(CC4CCC4)cc3)CC2)CC1 [Example 183] | 0.00276 |  |  |
| O=C(NO)C1(S(=O)(=O)N2CCC(COCc3ccc(C(F)(F)F)cc3)CC2)CCOCC1 [Example 403] |  | > 10 |  |

| SMILES | IC50 ([1]; value in parenthesis) [µM] | Ki [2] [µM] | other results |
| --- | --- | --- | --- |
| CCCCCC/C=C/C1CCN(S(=O)(=O)C2(C(=O)NO)CCOCC2)CC1 [Example 402] |  | 3.65 |  |
| COCCN1CCC(C(=O)NO)(S(=O)(=O)N2CCN(c3ccc(CC4CCCCC4)cc3)CC2)CC1 [Example 181] | 0.018 |  |  |
| O=C(NO)C1(S(=O)(=O)N2CCC(COCc3ccc(SC(F)(F)F)cc3)CC2)CCOCC1 [Example 405] |  | 8.32 |  |
| O=C(NO)C1(S(=O)(=O)N2CCN(c3ccc(-c4nn[nH]n4)cc3)CC2)CCOCC1 [Example 419] |  | > 10 |  |
| CCCC#Cc1cnc(N2CCN(S(=O)(=O)C3(C(=O)NO)CCOCC3)CC2)s1 [Example 400] |  | 3.32 |  |
| O=C(NO)C1(S(=O)(=O)N2CCC(COCc3ccc(OC(F)(F)F)cc3)CC2)CCOCC1 [Example 404] |  | > 10 |  |
| O=C(NO)C1(S(=O)(=O)N2CCC(c3ccc(OCCC(F)(F)F)cn3)CC2)CCOCC1 [Example 418] |  | 3.08 |  |
| CCC(F)(F)CCc1ccc(C2CCN(S(=O)(=O)C3(C(=O)NO)CCOCC3)CC2)cn1 [Example 411] |  | > 10 |  |
| Cc1ccc(-c2ccc(C3CCN(S(=O)(=O)C4(C(=O)NO)CCOCC4)CC3)nc2)s1 [Example 416] |  | 6.42 |  |
| Cc1ccc(-c2csc(N3CCN(S(=O)(=O)C4(C(=O)NO)CCOCC4)CC3)n2)cc1 [Example 412] |  | > 10 |  |
| CCCCOc1ccc(N2CCN(S(=O)(=O)C3(C(=O)NO)CCN(C(=O)CCC)CC3)CC2)cc1 [Example 290] |  |  | IC50 ([1]; value in parentheses): 0.00035 µM |
| CCCCOc1ccc(C2CCN(S(=O)(=O)C3(C(=O)NO)CCOCC3)CC2)nc1 [Example 410] |  | 3.49 |  |
| CCOc1ccc(N2CCN(S(=O)(=O)C3(C(=O)NO)CCN(CCOC)CC3)CC2)cc1F [Example 184] | 0.00226 |  |  |
| O=C(NO)C1(S(=O)(=O)N2CCC(c3ccc(-c4cccs4)c(F)c3)CC2)CCOCC1 [Example 407] |  | > 10 |  |
| CCCOc1ccc(N2CCN(S(=O)(=O)C3(C(=O)NO)CCN(CCOC)CC3)CC2)cc1F [Example 185] | 0.00163 |  |  |
| COCCN1CCC(C(=O)NO)(S(=O)(=O)N2CCN(c3ccc(C#N)cc3)CC2)CC1 [Example 186] | 0.00263 |  |  |
